Patent US20050245527A1, “Nitrogen containing heterocyclic compounds and medicines containing the same” (priority 2002, published 2005)

What was measured:
[1] = tested on: left saphenous nerve of rats (ectopic firing); test: Inhibition of ectopic firing; format: in vivo; conditions: Rattus norvegicus, iv; rats with cut left saphenous nerve, urethane anesthesia, compound via catheter in right cervical vein, number of firings in 10 seconds; read-out: Inhibition of ectopic firing (ID50)
Procedure: <Inhibition of Ectopic Firing>
(1) The inhibitory effect on ectopic firing was evaluated by the following method, with reference to Burchiel, K J., Exp. Neurol., 102, 249-253 (1988).
(2) The left saphenous nerve of rats, in which ectopic firing was observed, was cut near the knee joint, and approximately 3 mm was cut off to avoid reattachment of the cut nerve. After more than a week, the left saphenous nerve was exposed under urethane (1 g/kg body weight) anesthesia, and the proximal part up to approximately 1 cm from the cut site was detached from the surrounding tissue. A catheter was inserted in the right cervical vein beforehand for administration of the compound.
(3) The detached nerve was placed on a platinum hook electrode and wetted with liquid paraffin to avoid drying of the nerve. The electrode was connected to a microelectrode amplifier, and the change in potential was recorded from an oscilloscope through an A/D converter onto a computer. The recorded nerve firing was evaluated based on the number of firings in 10 seconds, using analyzing software (AcqKnowledge).

sodium channels = format: cell-based; conditions: read-out: IC50 (μM), sodium channel-inhibiting activity; rat fetal cultured hippocampal neurons, SBFI fluorescence in the presence of 4-aminopyridine, 5 minutes after addition, 1 μM tetrodotoxin = 100%

SMILES | ED50 [1] | IC50 (sodium channels)
CC1(C(=O)Cc2ccccc2F)CCN(Cc2ncc[nH]c2=O)CC1 [Example 365, 3-[4-[2-(2-Fluorophenyl)acetyl]-4-methylpiperidino]methyl-1H-pyrazin-2-one] | < 0.5 mg/kg | 3.4 µM
O=c1[nH]ccnc1CN1CCC(CCc2ccccc2F)CC1 [Example 177, 3-[4-[2-(2-Fluorophenyl)ethyl]piperidino]methyl-1H-pyrazin-2-one] | < 0.5 mg/kg | 4.5 µM
O=c1[nH]cccc1CN1CC2CCCC(C1)C2/C=C/c1ccccc1F (stereo not drawn) [Example 129, anti-(E)-3-[9-[2-(2-Fluorophenyl)vinyl]-3-azabicyclo[3.3.1]non-3-yl]methyl-1H-pyridin-2-one] | 0.5 to 1 mg/kg | 2.1 µM
CSc1ccccc1CC(=O)C1CCN(Cc2ncc[nH]c2=O)CC1 [Example 343, 3-[4-[2-[2-(Methylthio)phenyl]acetyl]piperidino]methyl-1H-pyrazin-2-one] | < 0.5 mg/kg | 3.5 µM
Cc1cccc(CC(=O)C2CCN(Cc3ncc[nH]c3=O)CC2)c1 [Example 192, 3-[4-[2-(3-Methylphenyl)acetyl]piperidino]methyl-1H-pyrazin-2-one] | 0.5 to 1 mg/kg | 3.8 µM
O=c1[nH]cccc1CN1CCC(O)(COc2ccccc2F)CC1 [Example 253, 3-[4-Hydroxy-4-(2-fluorophenoxymethyl)piperidino]methyl-1H-pyridin-2-one] | < 0.5 mg/kg | 9.2 µM
O=c1[nH]ccnc1CN1CCC(CCc2cccc3c2OCC3)CC1 [Example 140, 3-[4-[2-(2,3-Dihydrobenzofuran-7-yl)ethyl]piperidino]methyl-1H-pyrazin-2-one] | < 0.5 mg/kg | 5.6 µM
O=c1[nH]ccnc1CN1CCC(c2nc(-c3cccc(F)c3)no2)CC1 [Example 188, 3-[4-[3-(3-Fluorophenyl)-1,2,4-oxadiazol-5-yl]piperidino]methyl-1H-pyrazin-2-one] | 0.5 to 1 mg/kg | 5 µM
O=C(c1ccccc1F)N(C(=O)c1ccccc1F)C1(O)CCN(Cc2ncc[nH]c2=O)CC1 [Example 214, 2-Fluoro-N-(2-fluorobenzoyl)-N-[4-hydroxy-1-(3-oxo-3,4-dihydro-2-pyrazinylmethyl)piperidin-4-yl]benzamide] | 0.5 to 1 mg/kg | 8.7 µM
CCOc1ccccc1CC(=O)C1CCN(Cc2ncc[nH]c2=O)CC1 [Example 347, 3-[4-[2-(2-Ethoxyphenyl)acetyl]piperidino]methyl-1H-pyrazin-2-one] | < 0.5 mg/kg | 3 µM
O=C(Cc1c(F)cccc1F)C1CCN(Cc2ncc[nH]c2=O)CC1 [Example 195, 3-[4-[2-(2,6-Difluorophenyl)acetyl]piperidino]methyl-1H-pyrazin-2-one] | 0.5 to 1 mg/kg | 2 µM
O=c1[nH]ccnc1CN1CCC(CCc2cccc3ccoc23)CC1 [Example 146, 3-[4-[2-(Benzofuran-7-yl)ethyl]piperidino]methyl-1H-pyrazin-2-one] | < 0.5 mg/kg | 2 µM
O=c1cncc(CCN2CCC(COc3ccccc3Cl)CC2)[nH]1 [Example 235, 6-[2-[4-(2-Chlorophenoxymethyl)piperidino]ethyl]-1H-pyrazin-2-one] | < 0.5 mg/kg | 5 µM
COc1ccccc1CC(=O)C1CCN(Cc2ncc[nH]c2=O)CC1 [Example 193, 3-[4-[2-(2-Methoxyphenyl)acetyl]piperidino]methyl-1H-pyrazin-2-one] | < 0.5 mg/kg | 2.9 µM
O=c1[nH]cccc1CN1CCC(O)(C#Cc2ccccc2F)CC1 [Example 258, 3-[4-Hydroxy-4-[(2-fluorophenyl)ethynyl]piperidino]methyl-1H-pyridin-2-one] | < 0.5 mg/kg | 4.2 µM
O=C(CC1CCN(Cc2ncc[nH]c2=O)CC1)c1ccccc1Cl [Example 174, 3-[4-[2-(2-Chlorophenyl)-2-oxoethyl]piperidino]methyl-1H-pyrazin-2-one] | < 0.5 mg/kg | 3.6 µM
O=C(Cc1ccccc1F)C1CCCN(Cc2ncc[nH]c2=O)C1 (stereo not shown) [Example 208, 3-[3-[2-(2-Fluorophenyl)acetyl]piperidino]methyl-1H-pyrazin-2-one] | 0.5 to 1 mg/kg | 5.5 µM
O=c1cncc(CCN2CCC(CCc3ccccc3F)CC2)[nH]1 [Example 243, 6-[2-[4-[2-(2-Fluorophenyl)ethyl]piperidino]ethyl]-1H-pyrazin-2-one] | < 0.5 mg/kg | 5.7 µM
O=C(CC1CCN(Cc2ncc[nH]c2=O)CC1)c1sccc1Cl [Example 169, 3-[4-[2-(3-Chloro-2-thienyl)-2-oxoethyl]piperidino]methyl-1H-pyrazin-2-one] | 0.5 to 1 mg/kg | 3.5 µM

SMILES | ED50 [1] | IC50 (sodium channels)
COc1ccccc1CCC1CCN(Cc2ncc[nH]c2=O)C1.O=C(O)C(=O)O (stereo not shown) [Example 135, 3-[3-[2-(2-Methoxyphenyl)ethyl]pyrrolidino]methyl-1H-pyrazin-2-one oxalate] | < 0.5 mg/kg | 4 µM
O=c1cncc(CCN2CCC(COc3cc(F)ccc3F)CC2)[nH]1 [Example 241, 6-[2-[4-(2,5-Difluorophenoxymethyl)piperidino]ethyl]-1H-pyrazin-2-one] | 0.5 to 1 mg/kg | 5 µM
O=c1[nH]ccnc1CN1CCC(C#Cc2ccccc2F)CC1 [Example 170, 3-[4-[(2-Fluorophenyl)ethynyl]piperidino]methyl-1H-pyrazin-2-one] | < 0.5 mg/kg | 0.4 µM
O=C(O)C(=O)O.O=c1[nH]ccnc1CN1CCC(COc2ccccc2F)C1 (stereo not shown) [Example 132, 3-[3-(2-Fluorophenoxymethyl)pyrrolidino]methyl-1H-pyrazin-2-one oxalate] | 0.5 to 1 mg/kg | 6.2 µM
O=c1[nH]ccnc1CN1CCC(COc2ccccc2)CC1 [Example 198, 3-[4-(Phenoxymethyl)piperidino]methyl-1H-pyrazin-2-one] | < 0.5 mg/kg | 1.6 µM
Cc1ccsc1/C=C/C1CCN(Cc2ncc[nH]c2=O)CC1 [Example 157, (E)-3-[4-[2-(3-Methyl-2-thienyl)vinyl]piperidino]methyl-1H-pyrazin-2-one] | < 0.5 mg/kg | 3.6 µM
CC(c1ncc[nH]c1=O)N1CCC(C(=O)Cc2ccccc2C(F)(F)F)CC1.O=C(O)C(=O)O (stereo not shown) [Example 394, 3-[1-[4-[2-[2-(Trifluoromethyl)phenyl]acetyl]piperidino]ethyl]-1H-pyrazin-2-one oxalate] | < 0.5 mg/kg | 2.8 µM
O=C(Cc1ccccc1Cl)C1CCN(Cc2ncc[nH]c2=O)CC1 [Example 183, 3-[4-[2-(2-Chlorophenyl)acetyl]piperidino]methyl-1H-pyrazin-2-one] | < 0.5 mg/kg | 2.6 µM
O=c1[nH]ccnc1CN1CCC(COc2c(F)cccc2F)CC1 [Example 201, 3-[4-(2,6-Difluorophenoxymethyl)piperidino]methyl-1H-pyrazin-2-one] | 0.5 to 1 mg/kg | 6.7 µM
C[C@H]1C[C@@H](C(=O)Cc2ccccc2F)CCN1Cc1ncc[nH]c1=O (relative stereo) [Example 415, cis-3-[4-[2-(2-Fluorophenyl)acetyl]-2-methylpiperidino]methyl-1H-pyrazin-2-one] | < 0.5 mg/kg | 4.6 µM
Cc1ccccc1CC(=O)C1CCN(Cc2ncc[nH]c2=O)CC1 [Example 184, 3-[4-[2-(2-Methylphenyl)acetyl]piperidino]methyl-1H-pyrazin-2-one] | < 0.5 mg/kg | 2.9 µM
COc1ccccc1OCC1CCN(Cc2ncc[nH]c2=O)CC1 [Example 143, 3-[4-(2-Methoxyphenoxymethyl)piperidino]methyl-1H-pyrazin-2-one] | < 0.5 mg/kg | 3.1 µM
O=c1[nH]ccnc1CN1CCCC(CCc2ccccc2F)C1 (stereo not shown) [Example 156, 3-[3-[2-(2-Fluorophenyl)ethyl]piperidino]methyl-1H-pyrazin-2-one] | 0.5 to 1 mg/kg | 4.5 µM
Cc1ccccc1CCC1(O)CCN(Cc2ncc[nH]c2=O)CC1 [Example 222, 3-[4-Hydroxy-4-[2-(2-methylphenyl)ethyl]piperidino]methyl-1H-pyrazin-2-one] | 0.5 to 1 mg/kg | 2.5 µM
O=c1[nH]cc(Cl)cc1CN1CCC(O)(COc2ccccc2F)CC1 [Example 254, 5-Chloro-3-[4-hydroxy-4-(2-fluorophenoxymethyl)piperidino]methyl-1H-pyridin-2-one] | 0.5 to 1 mg/kg | 8.9 µM
O=c1[nH]ccnc1CN1CCC(CCc2sccc2F)CC1 [Example 172, 3-[4-[2-(3-Fluoro-2-thienyl)ethyl]piperidino]methyl-1H-pyrazin-2-one] | 0.5 to 1 mg/kg | 5 µM
O=C(Cc1cccc(F)c1F)C1CCN(Cc2ncc[nH]c2=O)CC1 [Example 200, 3-[4-[2-(2,3-Difluorophenyl)acetyl]piperidino]methyl-1H-pyrazin-2-one] | 0.5 to 1 mg/kg | 1.6 µM
O=c1[nH]c2ccccc2nc1CN1CCC(COc2ccccc2F)CC1 [Example 204, 3-[4-(2-Fluorophenoxymethyl)piperidino]methyl-1H-quinoxalin-2-one] | 0.5 to 1 mg/kg | 8.1 µM
O=C(Cc1ccccc1F)C1CCN(Cc2ncc[nH]c2=O)CC1 [Example 179, 3-[4-[2-(2-Fluorophenyl)acetyl]piperidino]methyl-1H-pyrazin-2-one] | < 0.5 mg/kg | 4.6 µM
